# In patent publication US6841684B2, “Imidiazoles having reduced side effects” (Allergan, Inc., priority 1997, dated 2005):
# Counter-ions that a name gives are not always drawn.
# Molecular target: T1, rat α2B (RNG gene) receptor (Rattus norvegicus, UniProt P19328)
# T1 construct: expressed in transfected cells; host or cells: NIH-3T3 cells, calcium phosphate cotransfection
# T1 sequence (P19328 1-453): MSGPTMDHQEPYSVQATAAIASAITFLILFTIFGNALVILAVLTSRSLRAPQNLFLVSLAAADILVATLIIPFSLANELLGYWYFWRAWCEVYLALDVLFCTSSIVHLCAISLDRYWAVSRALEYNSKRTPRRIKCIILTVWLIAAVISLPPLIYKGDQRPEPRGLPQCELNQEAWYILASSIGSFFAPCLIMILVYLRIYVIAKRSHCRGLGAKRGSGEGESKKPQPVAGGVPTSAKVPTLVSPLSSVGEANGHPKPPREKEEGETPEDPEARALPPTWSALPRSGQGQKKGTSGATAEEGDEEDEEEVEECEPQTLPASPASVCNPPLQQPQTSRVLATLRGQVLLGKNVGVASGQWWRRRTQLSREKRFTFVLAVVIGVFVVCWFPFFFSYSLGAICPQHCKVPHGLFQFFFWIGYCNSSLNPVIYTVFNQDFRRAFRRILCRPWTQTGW
# Experiment: RSAT (Receptor Selection and Amplification Technology) assay, alpha 2B
# Format: cell-based
# Conditions: ratio of maximal effect to that of standard full agonist oxymetazoline
# Text: This preferential activity can be determined in a variety of functional assays such as Cyclic AMP Production, Shimizu et al, J. Neurochem. […] In the study below, the RSAT assay on cells that have been transiently transfected with the human α2A (c10 gene), rat α2B (RNG gene) and human α2C (c4 gene) receptors was used.
# The assay measures a receptor-mediated loss of contact inhibition that results in selective proliferation of receptor-containing cells in a mixed population of confluent cells. The increase in cell number is assessed with an appropriate transfected marker gene such as b-galactosidase, the activity of which can be easily measured in a 96-well format. Receptors that activate the G protein, Gq, elicit this response. Alpha2 receptors, which normally couple to Gi, activate the RSAT response when coexpressed with a hybrid Gq protein that has a Gi receptor recognition domain, called Gq/i5^2.
# NIH-3T3 cells are plated at a density of 2×10^6 cells in 15 cm dishes and maintained in Dulbecco's modified Eagle's medium supplemented with 10% calf serum. One day later, cells are cotransfected by calcium phosphate precipitation with mammalian expression plasmids encoding p-SV-b-galactosidase (5-10 mg), receptor (1-2 mg) and G protein (1-2 mg). 40 mg salmon sperm DNA may also be included in the transfection mixture. Fresh media is added on the following day and 1-2 days later, cells are harvested and frozen in 50 assay aliquots. Cells are thawed and 100 ml added to […] aliquots of various concentrations of drugs in triplicate in 96-well dishes. Incubations continue 72-96 hr at 37°. After washing with phosphate-buffered saline, b-galactosidase enzyme activity is determined by adding 200 ml of the chromogenic substrate (consisting of 3.5 mM o-nitrophenyl-b-D-galactopyranoside and 0.5% nonidet P-40 in phosphate buffered saline), incubating overnight at 30° and measuring optical density at 420 nm. The absorbence is a measure of enzyme activity, which depends on cell number and reflects a receptor-mediated cell proliferation. The EC50 and maximal effect of each drug at each alpha2 receptor is determined. The efficacy or intrinsic activity is calculated as a ratio of the maximal effect of the drug to the maximal effect of a standard full agonist for each receptor subtype.
row,"Intrinsic Activity Relative to Oxymetazoline, Alpha 2B",SMILES
1,1.08,"CC1=CC(Cc2c[nH]cn2)CC1 (stereo not shown) [Example T-3, 4(5)-(3-methylcyclopent-2-enylmethyl)-1H-imidazole, but-2-enedioic acid salt]"
2,0.6,"C1=CC(Cc2c[nH]cn2)CCC1 (stereo not shown) [Example U-1, 4(5)-cyclohex-2-enylmethyl-1H-imidazole, but-2-enedioic acid salt]"
3,0.6,"CC1C=CC(Cc2c[nH]cn2)CC1 (stereo not shown) [Example U-2, 4(5)-(4-methyl-cyclohex-2-enylmethyl)-1H-imidazole, but-2-enedioic acid salt]"
4,0.55,"CC1=C(C)CC(Cc2c[nH]cn2)CC1 (stereo not shown) [Example W-1, 4(5)-(3,4-Dimethyl-cyclohex-3-enylmethyl)-1H-imidazole, but-2-enedioic acid salt]"
5,0.6,"C1=CCC(Cc2c[nH]cn2)CC1 (stereo not shown) [Example W-2, 4(5)-Cyclohex-3-enylmethyl-1H-imidazole, but-2-enedioic acid salt]"
6,0.8,"CC1=CCC(Cc2c[nH]cn2)CC1 (stereo not shown) [Example X-1, 4(5)-(4-Methyl-cyclohex-3-enylmethyl)-1H-imidazole, but-2-enedioic acid salt]"
7,0.56,"CCC1=CCC(Cc2c[nH]cn2)CC1 (stereo not shown) [Example X-2, 4(5)-(4-Ethyl-cyclohex-3-enylmethyl)-1H-imidazole, but-2-enedioic acid salt]"
8,0.87,"CCCCCC1=CCC(Cc2c[nH]cn2)CC1 (stereo not shown) [Example X-3, 4(5)-(4-Pentyl-cyclohex-3-enylmethyl)-1H-imidazole, but-2-enedioic acid salt]"
9,0.9,"Cc1c(N=C2NCCN2)ccc2c1NC(=O)CO2 [F, 6-(imidazolidin-2-ylideneamino)-5-methyl-4H-benzo[1,4]oxazin-3-one]"
10,0.87,"Cc1ccc(N=C2NCCN2)c2c1NCCO2.Cl [G, imidazolin-2-ylidene-(5-methyl-3,4-dihydro-2H-benzo[1,4]oxazin-8-yl) amine, hydrogen chloride salt]"
11,0.93,"c1ccc(Sc2c[nH]cn2)cc1 [H, 4(5)-phenylsulfanyl-1H-imidazole]"
12,0.5,"C1=NC(CC2CCc3ccccc3C2)CN1 (stereo not shown) [I, 4(5)-(1,2,3,4-tetrahydronaphthalen-2-ylmethyl)-4,5-dihydro-1H-imidazole, methane sulfonic acid salt]"
13,0.4,"O=C1CCCCC1Cc1c[nH]cn1 (stereo not shown) [V, 2-(1H-Imidazole-4(5)-ylmethyl)-cyclohexanone, but-2-enedioic acid salt]"

# Continued, compound first:
row,SMILES,"Intrinsic Activity Relative to Oxymetazoline, Alpha 2B"
1,"Cc1ccsc1Cc1cnc[nH]1 [4(5)-(3-methyl-thiophen-2-ylmethyl)-1H-imidazole, reference compound]",1.4
2,"O=C1c2ccccc2OCC1Cc1c[nH]cn1 (stereo not shown) [Example B-2b, 3-(1H-imidazol-4(5)-ylmethyl)chroman-4-one]",0.77
3,"c1coc(Cc2c[nH]cn2)c1 [Example C-5, 4(5)-furan-2-ylmethyl-1H-imidazole]",1.1
4,"c1nc(Cc2cc3c(s2)SCCC3)c[nH]1 [Example K-3, 4(5)-(5,6-dihydro-4H-thieno[2,3-b]thiopyran-2-ylmethyl)-1H-imidazole]",0.37
5,"C1=C2CCCCC2CCC1Cc1c[nH]cn1 (stereo not shown) [Example N-2, 4(5)-(2,3,4,4a,5,6,7,8-octahydronaphthalen-2-ylmethyl)-1H-imidazole]",0.5
6,"c1nc(CC2CCC3=C(CCCC3)C2)c[nH]1 (stereo not shown) [Example N-3, 4(5)-(1,2,3,4,5,6,7,8-octahydronaphthalen-2-ylmethyl)-1H-imidazole, fumarate]",0.75
7,"Cl.c1nc(CC2CC3CCCC3C2)c[nH]1 (stereo not shown) [Example O, 4(5)-octahydro pentalen-2-ylmethyl-1H-imidazole, hydrochloride]",0.67
8,"O=C1c2cnccc2CCC1Cc1c[nH]cn1 (stereo not shown) [Example P-1, 7-(1H-imidazol-4(5)-ylmethyl)-6,7-dihydro-5H-isoquinoline-8-one, fumarate]",0.4
9,"c1cc2c(cn1)CC(Cc1c[nH]cn1)CC2 (stereo not shown) [Example P-2, 7-(1H-imidazol-4(5)-ylmethyl)-5,6,7,8-tetrahydro-isoquinoline, fumarate]",0.4
10,"O=C1/C(=C\c2c[nH]cn2)CCc2ncccc21 [Example Q-1, (Z)-6-(1H-imidazol-4(5)-ylmethylene)-7,8-dihydro-6H-quinolin-5-one]",0.75
11,"O=C1/C(=C/c2c[nH]cn2)CCc2ncccc21 [Example Q-2, (E)-6-(1H-imidazol-4(5)-ylmethylene)-7,8-dihydro-6H-quinolin-5-one]",0.87
12,"O=C1c2cccnc2CCC1Cc1c[nH]cn1 (stereo not shown) [Example Q-3, 6-(1H-imidazol-4(5)-ylmethyl)-7,8-dihydro-6H-quinolin-5-one]",0.9
13,"c1cnc2c(c1)CC(Cc1c[nH]cn1)CC2 (stereo not shown) [Example Q-4, 6-(1H-imidazol-4(5)-ylmethyl)-5,6,7,8-tetrahydro-quinoline, dihydrochloride]",0.8
14,"O=C1C(Cc2c[nH]cn2)CCC2NCCCC12 (stereo not shown) [Example Q-5, 6-(1H-imidazol-4(5)-yl-methyl)-octahydroquinolin-5-one]",1.0
15,"O=C1/C(=C/c2c[nH]cn2)CCc2nccnc21 [Example R-1, (E)-6-(1H-imidazol-4(5)-ylmethylene)-7,8-dihydro-6H-quinoxalin-5-one]",0.8
16,"O=C1c2ccncc2CCC1Cc1c[nH]cn1 (stereo not shown) [Example R-2, 6-(1H-imidazol-4(5)-ylmethyl)-7,8-dihydro-6H-isoquinolin-5-one, dihydrochloride]",0.6
17,"c1cc2c(cn1)CCC(Cc1c[nH]cn1)C2 (stereo not shown) [Example R-3, 6-(1H-imidazol-4(5)-ylmethyl)-5,6,7,8-tetrahydro-isoquinoline, fumarate]",0.6
18,"C[C@@]12CCCCC1=C[C@@H](Cc1c[nH]cn1)CC2 [Example S, 4(5)-(4a-methyl-2,3,4,4a,5,6,7,8-octahydro-naphthalen-2-ylmethyl)-1H-imidazole, but-2-enedioic acid salt]",.6
19,"CC1=CC(Cc2c[nH]cn2)CCC1 (stereo not shown) [Example T-1, 4(5)-(3-methyl-cyclohex-2-enylmethyl)-1H-imidazole, but-2-enedioic acid salt]",0.8
20,"CC1=CC(Cc2c[nH]cn2)CC(C)(C)C1 (stereo not shown) [Example T-2, 4(5)-(3,5,5-trimethyl-cyclohex-2-enylmethyl)-1H-imidazole, but-2-endioic acid salt]",0.7
21,"CC(c1c[nH]cn1)c1ccco1 (stereo not shown) [L, 4(5)-(1-furan-2-ylethyl)-1H-imidazole]",0.9

# Test system: conscious cynomolgus monkeys
# Experiment: Cardiovascular side effects (blood pressure, heart rate) after i.v. administration
# Format: in vivo, cynomolgus monkey
# Conditions: i.v. 50 μg/kg, up to 6 hours; + with * = increase from base levels
# Text: Cardiovascular measurements were made in a different group of monkeys using a BP 100S automated sphygmomanometer (Nippon Colin,. Japan).
SMILES,"Maximum % Decrease From Pretreatment Levels, Heart Rate","Maximum % Decrease From Pretreatment Levels, Mean Arterial Blood Pressure"
"Cc1ccsc1Cc1cnc[nH]1 [4(5)-(3-methyl-thiophen-2-ylmethyl)-1H-imidazole, reference compound]",23 ± 4%,9 ± 3%

# Same assay, conditions: i.v. 167 μg/kg, up to 6 hours; + with * = increase from base levels
SMILES,"Maximum % Decrease From Pretreatment Levels, Heart Rate","Maximum % Decrease From Pretreatment Levels, Mean Arterial Blood Pressure"
"Cc1ccsc1Cc1cnc[nH]1 [4(5)-(3-methyl-thiophen-2-ylmethyl)-1H-imidazole, reference compound]",32 ± 8%,8 ± 6%

# Same assay, conditions: i.v. 500 μg/kg, up to 6 hours; + with * = increase from base levels
SMILES,"Maximum % Decrease From Pretreatment Levels, Heart Rate","Maximum % Decrease From Pretreatment Levels, Mean Arterial Blood Pressure"
"O=C1c2ccccc2OCC1Cc1c[nH]cn1 (stereo not shown) [Example B-2b, 3-(1H-imidazol-4(5)-ylmethyl)chroman-4-one]",6.4 ± 3.6%,5.7 ± 1.4%
"c1coc(Cc2c[nH]cn2)c1 [Example C-5, 4(5)-furan-2-ylmethyl-1H-imidazole]",7.1 ± 3.9%,3.9 ± 2.8%

# Same assay, conditions: intravenous administration, monkeys
row,SMILES,effect on heart rate (in words)
1,"Cc1ccsc1Cc1cnc[nH]1 [4(5)-(3-methyl-thiophen-2-ylmethyl)-1H-imidazole, reference compound]",weak effect on heart rate
